{
  "source": "paper PMC8480901",
  "about": "(PLoS ONE, 2021)",
  "tested_on": "J774.2 mouse macrophages",
  "assay": "LPS-induced cytokine and chemokine levels in J774.2 mouse macrophage cell supernatant (ELISA)",
  "format": "cell-based",
  "conditions": "LPS; for TNF-α / CCl2, % reduction / CCl2, Mean / GM-CSF % reduction / GM-CSF Mean / IL-1β % reduction / IL-1β Mean / IL-6 % reduction / IL-6 Mean / TNF-α % reduction / TNF-α Mean / CCl2 / CXCL1 / GM-CSF / IL-1β / IL-6: J774.2 supernatant; for TNF-α / CCl2 / CXCL1 / GM-CSF / IL-1β / IL-6 / CXCL2 / MMP9: individual replicate; for CXCL2 / MMP9: J774.2 cells",
  "note": "“And” between values parts separate entries of the source, which are not always exact repeats. Equal values may be shown once.",
  "data": [
    {"smiles": "C=C[C@]1(C)C[C@@H](OC(=O)CS[C@@H]2CC[C@@H](N)C[C@H]2O)[C@]2(C)[C@H](C)CC[C@]3(CCC(=O)[C@H]32)[C@@H](C)[C@@H]1O", "note": "[Lefamulin]", "values": [
      {"measurement": "TNF-α", "setting": "0.3 µM", "value": "1489.0 pg/mL and 1477.5 pg/mL"},
      {"measurement": "CCl2, % reduction", "setting": "1 µM", "value": -9, "unit": "%"},
      {"measurement": "CCl2, Mean", "setting": "1 µM", "value": 39289, "unit": "pg/mL"},
      {"measurement": "GM-CSF % reduction", "setting": "1 µM", "value": 60, "unit": "%"},
      {"measurement": "GM-CSF Mean", "setting": "1 µM", "value": 564, "unit": "pg/mL"},
      {"measurement": "IL-1β % reduction", "setting": "1 µM", "value": -12, "unit": "%"},
      {"measurement": "IL-1β Mean", "setting": "1 µM", "value": 213, "unit": "pg/mL"},
      {"measurement": "IL-6 % reduction", "setting": "1 µM", "value": 0.856, "unit": "%"},
      {"measurement": "IL-6 Mean", "setting": "1 µM", "value": 76721, "unit": "pg/mL"},
      {"measurement": "TNF-α % reduction", "setting": "1 µM", "value": -11, "unit": "%"},
      {"measurement": "TNF-α Mean", "setting": "1 µM", "value": 1515, "unit": "pg/mL"},
      {"measurement": "CCl2", "setting": "1 µM", "value": "38237.3 pg/mL and 40341.1 pg/mL"},
      {"measurement": "CXCL1", "setting": "1 µM", "value": "25.5 pg/mL and 26.1 pg/mL"},
      {"measurement": "GM-CSF", "setting": "1 µM", "value": "597.3 pg/mL and 530.6 pg/mL"},
      {"measurement": "IL-1β", "setting": "1 µM", "value": "223.29 pg/mL and 203.668 pg/mL"},
      {"measurement": "IL-6", "setting": "1 µM", "value": "75165 pg/mL and 78277 pg/mL"},
      {"measurement": "TNF-α", "setting": "1 µM", "value": "1503.6 pg/mL and 1525.6 pg/mL"},
      {"measurement": "CCl2, % reduction", "setting": "3 µM", "value": -16, "unit": "%"},
      {"measurement": "CCl2, Mean", "setting": "3 µM", "value": 41389, "unit": "pg/mL"},
      {"measurement": "GM-CSF % reduction", "setting": "3 µM", "value": 51, "unit": "%"},
      {"measurement": "GM-CSF Mean", "setting": "3 µM", "value": 681, "unit": "pg/mL"},
      {"measurement": "IL-1β % reduction", "setting": "3 µM", "value": 12, "unit": "%"},
      {"measurement": "IL-1β Mean", "setting": "3 µM", "value": 168, "unit": "pg/mL"},
      {"measurement": "IL-6 % reduction", "setting": "3 µM", "value": 0.505, "unit": "%"},
      {"measurement": "IL-6 Mean", "setting": "3 µM", "value": 76992, "unit": "pg/mL"},
      {"measurement": "TNF-α % reduction", "setting": "3 µM", "value": -11, "unit": "%"},
      {"measurement": "TNF-α Mean", "setting": "3 µM", "value": 1517, "unit": "pg/mL"},
      {"measurement": "CCl2", "setting": "3 µM", "value": "47549.1 pg/mL and 35229.8 pg/mL"},
      {"measurement": "CXCL1", "setting": "3 µM", "value": "27.5 pg/mL and 27.6 pg/mL"},
      {"measurement": "GM-CSF", "setting": "3 µM", "value": "645.8 pg/mL and 715.5 pg/mL"},
      {"measurement": "IL-1β", "setting": "3 µM", "value": "151.548 pg/mL and 184.21 pg/mL"},
      {"measurement": "IL-6", "setting": "3 µM", "value": "76816 pg/mL and 77168 pg/mL"},
      {"measurement": "TNF-α", "setting": "3 µM", "value": "1470.9 pg/mL and 1563.2 pg/mL"},
      {"measurement": "CCl2, % reduction", "setting": "10 µM", "value": -20, "unit": "%"},
      {"measurement": "CCl2, Mean", "setting": "10 µM", "value": 42850, "unit": "pg/mL"},
      {"measurement": "GM-CSF % reduction", "setting": "10 µM", "value": 25, "unit": "%"},
      {"measurement": "GM-CSF Mean", "setting": "10 µM", "value": 1034, "unit": "pg/mL"},
      {"measurement": "IL-1β % reduction", "setting": "10 µM", "value": 16, "unit": "%"},
      {"measurement": "IL-1β Mean", "setting": "10 µM", "value": 160, "unit": "pg/mL"},
      {"measurement": "IL-6 % reduction", "setting": "10 µM", "value": 11, "unit": "%"},
      {"measurement": "IL-6 Mean", "setting": "10 µM", "value": 69181, "unit": "pg/mL"},
      {"measurement": "TNF-α % reduction", "setting": "10 µM", "value": -18, "unit": "%"},
      {"measurement": "TNF-α Mean", "setting": "10 µM", "value": 1616, "unit": "pg/mL"},
      {"measurement": "CCl2", "setting": "10 µM", "value": "49014.8 pg/mL and 36684.7 pg/mL"},
      {"measurement": "CXCL1", "setting": "10 µM", "value": "35.9 pg/mL and 33.8 pg/mL"},
      {"measurement": "GM-CSF", "setting": "10 µM", "value": "1124.4 pg/mL and 943.6 pg/mL"},
      {"measurement": "IL-1β", "setting": "10 µM", "value": "178.332 pg/mL and 142.562 pg/mL"},
      {"measurement": "IL-6", "setting": "10 µM", "value": "73782 pg/mL and 64579 pg/mL"},
      {"measurement": "TNF-α", "setting": "10 µM", "value": "1578.1 pg/mL and 1653.1 pg/mL"},
      {"measurement": "CCl2, % reduction", "setting": "30 µM", "value": -35, "unit": "%"},
      {"measurement": "CCl2, Mean", "setting": "30 µM", "value": 47970, "unit": "pg/mL"},
      {"measurement": "GM-CSF % reduction", "setting": "30 µM", "value": -22, "unit": "%"},
      {"measurement": "GM-CSF Mean", "setting": "30 µM", "value": 1662, "unit": "pg/mL"},
      {"measurement": "IL-1β % reduction", "setting": "30 µM", "value": 6, "unit": "%"},
      {"measurement": "IL-1β Mean", "setting": "30 µM", "value": 179, "unit": "pg/mL"},
      {"measurement": "IL-6 % reduction", "setting": "30 µM", "value": 25, "unit": "%"},
      {"measurement": "IL-6 Mean", "setting": "30 µM", "value": 57940, "unit": "pg/mL"},
      {"measurement": "TNF-α % reduction", "setting": "30 µM", "value": -31, "unit": "%"},
      {"measurement": "TNF-α Mean", "setting": "30 µM", "value": 1789, "unit": "pg/mL"},
      {"measurement": "CCl2", "setting": "30 µM", "value": "51706.3 pg/mL and 44234.6 pg/mL"},
      {"measurement": "CXCL1", "setting": "30 µM", "value": "87.9 pg/mL and 85.2 pg/mL"},
      {"measurement": "GM-CSF", "setting": "30 µM", "value": "1753.9 pg/mL and 1570.0 pg/mL"},
      {"measurement": "IL-1β", "setting": "30 µM", "value": "181.679 pg/mL and 176.699 pg/mL"},
      {"measurement": "IL-6", "setting": "30 µM", "value": "56206 pg/mL and 59673 pg/mL"},
      {"measurement": "TNF-α", "setting": "30 µM", "value": "1766.5 pg/mL and 1811.5 pg/mL"},
      {"measurement": "CCl2, % reduction", "setting": "100 µM", "value": 26, "unit": "%"},
      {"measurement": "CCl2, Mean", "setting": "100 µM", "value": 27179, "unit": "pg/mL"},
      {"measurement": "GM-CSF % reduction", "setting": "100 µM", "value": -29, "unit": "%"},
      {"measurement": "GM-CSF Mean", "setting": "100 µM", "value": 1755, "unit": "pg/mL"},
      {"measurement": "IL-1β % reduction", "setting": "100 µM", "value": -71, "unit": "%"},
      {"measurement": "IL-1β Mean", "setting": "100 µM", "value": 325, "unit": "pg/mL"},
      {"measurement": "IL-6 % reduction", "setting": "100 µM", "value": 46, "unit": "%"},
      {"measurement": "IL-6 Mean", "setting": "100 µM", "value": 42097, "unit": "pg/mL"},
      {"measurement": "TNF-α % reduction", "setting": "100 µM", "value": -249, "unit": "%"},
      {"measurement": "TNF-α Mean", "setting": "100 µM", "value": 4717, "unit": "pg/mL"},
      {"measurement": "CCl2", "setting": "100 µM", "value": "26262.5 pg/mL and 28095.5 pg/mL"},
      {"measurement": "CXCL1", "setting": "100 µM", "value": "258.9 pg/mL and 215.6 pg/mL"},
      {"measurement": "GM-CSF", "setting": "100 µM", "value": "1833.3 pg/mL and 1676.9 pg/mL"},
      {"measurement": "IL-1β", "setting": "100 µM", "value": "330.455 pg/mL and 319.964 pg/mL"},
      {"measurement": "IL-6", "setting": "100 µM", "value": "40652 pg/mL and 43542 pg/mL"},
      {"measurement": "TNF-α", "setting": "100 µM", "value": "4063.6 pg/mL and 5370.1 pg/mL"},
      {"measurement": "CXCL2", "setting": "compound 0.03 µM", "value": "31852.1 pg/mL and 31453.1 pg/mL"},
      {"measurement": "MMP9", "setting": "compound 0.03 µM", "value": "895.68 pg/mL and 982.757 pg/mL"},
      {"measurement": "CXCL2", "setting": "compound 0.1 µM", "value": "30865.4 pg/mL and 29898.5 pg/mL"},
      {"measurement": "MMP9", "setting": "compound 0.1 µM", "value": "770.463 pg/mL and 867.766 pg/mL"},
      {"measurement": "CXCL2", "setting": "compound 0.3 µM", "value": "32714.1 pg/mL and 32124.3 pg/mL"},
      {"measurement": "MMP9", "setting": "compound 0.3 µM", "value": "798.08 pg/mL and 882.55 pg/mL"},
      {"measurement": "CXCL2", "setting": "compound 1 µM", "value": "35082.5 pg/mL and 36713.0 pg/mL"},
      {"measurement": "MMP9", "setting": "compound 1 µM", "value": "879.359 pg/mL and 1004.8 pg/mL"},
      {"measurement": "CXCL2", "setting": "compound 3 µM", "value": "37039.4 pg/mL and 32794.8 pg/mL"},
      {"measurement": "MMP9", "setting": "compound 3 µM", "value": "913.107 pg/mL and 886.534 pg/mL"},
      {"measurement": "CXCL2", "setting": "compound 10 µM", "value": "36052.8 pg/mL and 33589.2 pg/mL"},
      {"measurement": "MMP9", "setting": "compound 10 µM", "value": "894.885 pg/mL and 781.214 pg/mL"},
      {"measurement": "CXCL2", "setting": "compound 30 µM", "value": "37378.3 pg/mL and 38345.7 pg/mL"},
      {"measurement": "MMP9", "setting": "compound 30 µM", "value": "446.696 pg/mL and 398.398 pg/mL"},
      {"measurement": "CXCL2", "setting": "compound 100 µM", "value": "37906.2 pg/mL and 37582.2 pg/mL"},
      {"measurement": "MMP9", "setting": "compound 100 µM", "value": "104.703 pg/mL and 78.135 pg/mL"}
    ]}
  ]
}
